Measurements as given in US20250214991A1 (Oncopia Therapeutics, Inc. d/b/a/ SK Life Science Labs, priority 2022, published 2025).

What was measured:
CRBN/DDB1 = CRBN/DDB1 (Homo sapiens (Human), UniProt Q96SW2); assay: IC50 measurements for binding to CRBN/DDB1 (HTRF); settings: His tagged CRBN+DDB, Cy5-labeled Thalidomide probe, one hour
Procedure, shortened: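 HTRF competition binding with 2 nM His-tagged CRBN-DDB1 complex, 60 nM Cy5-thalidomide probe and 0.4 nM anti-His Tb cryptate in 50 mM HEPES pH 7.5, 1 mM TCEP, 0.01% Brij-35, 50 mM NaCl, 0.1% BSA. Read after 1 h at room temperature; IC50 from four-parameter dose-response fit.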

IKZF2 = IKZF2 (Homo sapiens (Human), UniProt Q96SW2+Q9UKS7); assay: In vitro IKZF2 Western Blot Assay in Jurkat cells; assay type: cell-based; settings: 24 hrs; for inhibition at 0.001 µM: read-out: IKZF2 degradation (%) @ μM 0.001; for inhibition at 0.01 µM: read-out: IKZF2 degradation (%) @ μM 0.01; for inhibition at 0.1 µM: read-out: IKZF2 degradation (%) @ μM 0.1; for inhibition at 1 µM: read-out: IKZF2 degradation (%) @ μM 1; for inhibition at 10 µM: read-out: IKZF2 degradation (%) @ μM 10
Sequence of IKZF2 (Q9UKS7 whole entry): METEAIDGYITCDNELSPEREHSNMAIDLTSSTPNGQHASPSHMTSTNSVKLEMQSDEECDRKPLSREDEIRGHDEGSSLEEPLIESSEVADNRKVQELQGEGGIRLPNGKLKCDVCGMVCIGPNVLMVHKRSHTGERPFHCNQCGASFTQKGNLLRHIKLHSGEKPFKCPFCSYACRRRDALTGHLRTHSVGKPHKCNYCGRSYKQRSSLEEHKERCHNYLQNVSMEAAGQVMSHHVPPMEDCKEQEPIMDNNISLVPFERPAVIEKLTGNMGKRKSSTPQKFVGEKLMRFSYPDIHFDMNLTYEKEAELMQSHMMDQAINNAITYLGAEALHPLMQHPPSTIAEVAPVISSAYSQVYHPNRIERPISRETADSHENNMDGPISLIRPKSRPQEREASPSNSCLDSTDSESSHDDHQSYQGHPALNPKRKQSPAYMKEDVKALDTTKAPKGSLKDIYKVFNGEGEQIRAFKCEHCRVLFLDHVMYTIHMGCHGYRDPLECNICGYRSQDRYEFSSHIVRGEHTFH
Sequence of IKZF2 (Q96SW2 whole entry): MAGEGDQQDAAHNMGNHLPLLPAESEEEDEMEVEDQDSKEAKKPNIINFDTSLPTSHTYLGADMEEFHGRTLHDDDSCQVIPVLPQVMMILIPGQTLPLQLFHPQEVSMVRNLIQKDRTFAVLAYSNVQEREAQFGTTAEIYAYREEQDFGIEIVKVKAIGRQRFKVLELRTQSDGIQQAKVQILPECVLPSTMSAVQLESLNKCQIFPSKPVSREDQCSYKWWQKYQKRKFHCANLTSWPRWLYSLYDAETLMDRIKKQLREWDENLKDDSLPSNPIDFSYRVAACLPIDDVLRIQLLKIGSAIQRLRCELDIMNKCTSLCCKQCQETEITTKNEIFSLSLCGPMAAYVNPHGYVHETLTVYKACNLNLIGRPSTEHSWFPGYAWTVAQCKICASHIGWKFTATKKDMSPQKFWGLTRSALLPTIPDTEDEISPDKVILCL
Sequence of IKZF2 (Q16531 2-1140 partner): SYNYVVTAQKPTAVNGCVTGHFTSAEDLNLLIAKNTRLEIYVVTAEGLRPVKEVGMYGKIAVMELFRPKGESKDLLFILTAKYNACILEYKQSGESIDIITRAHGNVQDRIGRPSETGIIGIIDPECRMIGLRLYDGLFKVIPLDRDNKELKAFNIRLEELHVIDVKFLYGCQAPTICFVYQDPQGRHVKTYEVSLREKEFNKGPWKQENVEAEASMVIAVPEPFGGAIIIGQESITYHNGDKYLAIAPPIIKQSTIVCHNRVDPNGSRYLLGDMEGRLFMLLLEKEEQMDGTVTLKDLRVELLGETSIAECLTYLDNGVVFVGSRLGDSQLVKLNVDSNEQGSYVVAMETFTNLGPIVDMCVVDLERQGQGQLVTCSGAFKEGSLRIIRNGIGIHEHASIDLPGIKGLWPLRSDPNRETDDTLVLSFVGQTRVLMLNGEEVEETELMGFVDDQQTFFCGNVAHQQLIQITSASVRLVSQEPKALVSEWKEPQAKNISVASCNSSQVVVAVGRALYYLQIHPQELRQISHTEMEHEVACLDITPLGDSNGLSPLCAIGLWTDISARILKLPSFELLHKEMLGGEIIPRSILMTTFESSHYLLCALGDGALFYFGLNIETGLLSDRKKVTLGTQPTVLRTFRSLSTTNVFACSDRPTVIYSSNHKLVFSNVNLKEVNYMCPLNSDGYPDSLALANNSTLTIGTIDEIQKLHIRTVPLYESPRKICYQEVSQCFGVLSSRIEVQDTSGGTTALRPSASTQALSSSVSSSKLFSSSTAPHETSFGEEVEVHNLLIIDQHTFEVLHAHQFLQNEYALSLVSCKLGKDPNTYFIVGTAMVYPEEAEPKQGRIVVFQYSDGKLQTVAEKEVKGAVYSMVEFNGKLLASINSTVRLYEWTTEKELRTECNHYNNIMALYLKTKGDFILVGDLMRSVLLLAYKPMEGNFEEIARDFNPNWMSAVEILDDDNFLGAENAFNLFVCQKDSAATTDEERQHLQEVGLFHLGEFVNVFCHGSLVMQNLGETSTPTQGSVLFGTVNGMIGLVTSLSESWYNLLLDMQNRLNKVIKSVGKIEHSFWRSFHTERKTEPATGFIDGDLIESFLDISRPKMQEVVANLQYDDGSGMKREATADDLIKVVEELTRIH
Procedure: In vitro IKZF2 Western Blot Assay Jurkat cells (ATCC, Cat #HB-8065) were cultured in RPMI1640+10% FBS+1% P/S. Cells were treated at desired compound concentrations (0.001, 0.01, 0.1, 1, and 10 μM) and DMSO as vehicle control for 24 hrs. After 24 hr of treatment cells were collected by centrifugation and lysed in RIPA lysis buffer on ice for 10 min. After assessing protein concentration by BCA assay (Pierce), equal amounts of protein for each sample were loaded into 4-12% Bis-Tris gels (Invitrogen), transferred to PVDF membranes and immunoblotted with antibodies against IKZF2 and Actin (Cell Signaling). Membranes were developed on an Odyssey detection system (LI-COR Biosciences) after incubation with IRDye800-labeled goat anti-rabbit IgG and IRDye680-labeled goat anti-mouse IgG (LI-COR) secondary antibodies. Band intensities were quantified using ImageStudio software. Data was further analyzed using XLfit. Percentage of IKZF2 protein degradation: A (>50%); B (30-50%); C(<30%) (Table 2).

Sequence of CRBN/DDB1 (Q96SW2 whole entry, species assumed): as the sequence (Q96SW2 whole entry) above
Sequence of CRBN/DDB1 (Q16531 whole entry partner, species assumed): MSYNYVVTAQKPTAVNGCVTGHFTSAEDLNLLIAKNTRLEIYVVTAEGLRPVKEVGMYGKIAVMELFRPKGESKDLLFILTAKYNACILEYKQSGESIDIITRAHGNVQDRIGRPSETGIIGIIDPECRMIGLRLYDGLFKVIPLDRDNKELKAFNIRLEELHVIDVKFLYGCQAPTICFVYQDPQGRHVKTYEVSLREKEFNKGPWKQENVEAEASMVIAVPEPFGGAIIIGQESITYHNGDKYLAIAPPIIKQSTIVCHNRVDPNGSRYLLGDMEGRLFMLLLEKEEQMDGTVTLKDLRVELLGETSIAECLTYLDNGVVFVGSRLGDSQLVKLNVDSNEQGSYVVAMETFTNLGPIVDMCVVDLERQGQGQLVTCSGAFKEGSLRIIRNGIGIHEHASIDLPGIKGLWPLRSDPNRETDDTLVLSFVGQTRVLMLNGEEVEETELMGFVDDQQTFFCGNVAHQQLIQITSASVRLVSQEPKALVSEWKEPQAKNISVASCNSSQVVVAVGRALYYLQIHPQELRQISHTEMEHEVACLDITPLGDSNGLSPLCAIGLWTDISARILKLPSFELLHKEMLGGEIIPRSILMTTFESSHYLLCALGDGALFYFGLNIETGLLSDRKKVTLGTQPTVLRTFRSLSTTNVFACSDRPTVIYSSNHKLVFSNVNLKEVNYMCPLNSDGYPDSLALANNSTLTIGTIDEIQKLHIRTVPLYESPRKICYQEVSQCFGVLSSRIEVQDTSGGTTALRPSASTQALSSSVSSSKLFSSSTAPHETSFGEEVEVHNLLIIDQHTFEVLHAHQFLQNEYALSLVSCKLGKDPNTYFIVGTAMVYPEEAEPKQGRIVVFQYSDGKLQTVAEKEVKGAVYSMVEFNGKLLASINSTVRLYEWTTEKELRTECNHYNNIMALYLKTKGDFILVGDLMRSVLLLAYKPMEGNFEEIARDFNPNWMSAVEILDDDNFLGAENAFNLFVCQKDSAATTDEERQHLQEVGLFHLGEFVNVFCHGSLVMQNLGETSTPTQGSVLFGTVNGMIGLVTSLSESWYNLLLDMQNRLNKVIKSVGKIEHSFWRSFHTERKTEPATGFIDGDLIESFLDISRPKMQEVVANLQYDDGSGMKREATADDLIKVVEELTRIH

Row | Structure (SMILES) | IC50 (CRBN/DDB1) [nM] | inhibition at 0.001 µM (IKZF2) [%] | inhibition at 0.01 µM (IKZF2) [%] | inhibition at 0.1 µM (IKZF2) [%] | inhibition at 1 µM (IKZF2) [%] | inhibition at 10 µM (IKZF2) [%]
1 | O=C1CCC(N2Cc3cc(-c4cc(CN5CCCC5c5ccccc5)cc5cncn45)ccc3C2=O)C(=O)N1 (stereo not drawn) [Example 26, 3-(1-oxo-5-(7-((2-phenylpyrrolidin-1-yl)methyl)imidazo[1,5-a]pyridin-5-yl)isoindolin-2-yl) piperidine-2,6-dione] | 100 to 500 | < 30 | < 30 | 30 to 50 | 30 to 50 | 30 to 50
2 | O=C1CCC(N2Cc3cc(-c4cc(CN5CCCCC5)cn5ccnc45)ccc3C2=O)C(=O)N1 (stereo not drawn) [Example 33, 3-(1-oxo-5-(6-(piperidin-1-ylmethyl)imidazo[1,2-a]pyridin-8-yl)isoindolin-2-yl) piperidine-2,6-dione] | 100 to 500 | < 30 | > 50 | > 50 | > 50 | > 50
3 | O=C1CCC(N2Cc3cc(-c4cc(CN5CCC5)cn5ccnc45)ccc3C2=O)C(=O)N1 (stereo not drawn) [Example 34, 3-(5-(6-(azetidin-1-ylmethyl)imidazo[1,2-a]pyridin-8-yl)-1-oxoisoindolin-2-yl) piperidine-2,6-dione] | < 100 | 30 to 50 | 30 to 50 | > 50 | > 50 | > 50
4 | O=C1CCC(N2Cc3cc(-c4cc(CN5CCC(F)(F)CC5)cn5ccnc45)ccc3C2=O)C(=O)N1 (stereo not drawn) [Example 35, 3-(5-(6-((4,4-difluoropiperidin-1-yl)methyl)imidazo[1,2-a]pyridin-8-yl)-1-oxoisoindolin-2-yl) piperidine-2,6-dione] | 100 to 500 | < 30 | < 30 | < 30 | < 30 | < 30
5 | CC1(C)CCN(Cc2cc(-c3ccc4c(c3)CN(C3CCC(=O)NC3=O)C4=O)c3nccn3c2)CC1 (stereo not drawn) [Example 36, 3-(5-(6-((4,4-dimethylpiperidin-1-yl)methyl)imidazo[1,2-a]pyridin-8-yl)-1-oxoisoindolin-2-yl) piperidine-2,6-dione] | 100 to 500 | 30 to 50 | 30 to 50 | < 30 | < 30 | < 30
6 | O=C1CCC(N2Cc3cc(-c4cc(CN5CCC(C(F)(F)F)CC5)cn5ccnc45)ccc3C2=O)C(=O)N1 (stereo not drawn) [Example 37, 3-(1-oxo-5-(6-((4-(trifluoromethyl)piperidin-1-yl)methyl)imidazo[1,2-a]pyridin-8-yl)isoindolin-2-yl) piperidine-2,6-dione] | < 100 | < 30 | < 30 | < 30 | < 30 | < 30
7 | O=C1CCC(N2Cc3cc(-c4cc(CNCc5ccccc5Cl)cn5ccnc45)ccc3C2=O)C(=O)N1 (stereo not drawn) [Example 38, 3-(5-(6-(((2-chlorobenzyl)amino)methyl)imidazo[1,2-a]pyridin-8-yl)-1-oxoisoindolin-2-yl) piperidine-2,6-dione] | 100 to 500 | < 30 | < 30 | < 30 | < 30 | < 30
8 | O=C1CCC(N2Cc3cc(-c4cc(CNCCc5c(F)cccc5F)cn5ccnc45)ccc3C2=O)C(=O)N1 (stereo not drawn) [Example 39, 3-(5-(6-(((2,6-difluorophenethyl)amino)methyl)imidazo[1,2-a]pyridin-8-yl)-1-oxoisoindolin-2-yl) piperidine-2,6-dione] | < 100 | < 30 | < 30 | < 30 | < 30 | < 30
9 | O=C1CCC(N2Cc3cc(-c4cc(CNCCc5ccc(Cl)cc5Cl)cn5ccnc45)ccc3C2=O)C(=O)N1 (stereo not drawn) [Example 40, 3-(5-(6-(((2,4-dichlorophenethyl)amino)methyl)imidazo[1,2-a]pyridin-8-yl)-1-oxoisoindolin-2-yl) piperidine-2,6-dione] | 100 to 500 | < 30 | < 30 | < 30 | < 30 | 30 to 50
10 | O=C1CCC(N2Cc3cc(-c4cc(CNCCc5c(Cl)cccc5Cl)cn5ccnc45)ccc3C2=O)C(=O)N1 (stereo not drawn) [Example 41, 3-(5-(6-(((2,6-dichlorophenethyl)amino)methyl)imidazo[1,2-a]pyridin-8-yl)-1-oxoisoindolin-2-yl) piperidine-2,6-dione] | 100 to 500 | < 30 | < 30 | < 30 | < 30 | < 30
11 | Cc1ccccc1CCNCc1cc(-c2ccc3c(c2)CN(C2CCC(=O)NC2=O)C3=O)c2nccn2c1 (stereo not drawn) [Example 42, 3-(5-(6-(((2-methylphenethyl)amino)methyl)imidazo[1,2-a]pyridin-8-yl)-1-oxoisoindolin-2-yl) piperidine-2,6-dione] | < 100 | < 30 | < 30 | < 30 | < 30 | 30 to 50
12 | O=C1CCC(N2Cc3cc(-c4cc(CNCCc5ccccc5C(F)(F)F)cn5ccnc45)ccc3C2=O)C(=O)N1 (stereo not drawn) [Example 43] | < 100 | < 30 | < 30 | < 30 | < 30 | < 30
13 | O=C1CCC(N2Cc3cc(-c4cc(CNCCc5ccccc5Cl)cn5ccnc45)ccc3C2=O)C(=O)N1 (stereo not drawn) [Example 44, 3-(5-(6-(((2-chlorophenethyl)amino)methyl)imidazo[1,2-a]pyridin-8-yl)-1-oxoisoindolin-2-yl) piperidine-2,6-dione] | 100 to 500 | < 30 | < 30 | 30 to 50 | < 30 | 30 to 50
14 | CC(NCc1cc(-c2ccc3c(c2)CN(C2CCC(=O)NC2=O)C3=O)c2nccn2c1)c1ccccc1 (stereo not drawn) [Example 45, 3-(1-oxo-5-(6-(((1-phenylethyl)amino)methyl)imidazo[1,2-a]pyridin-8-yl)isoindolin-2-yl) piperidine-2,6-dione] | 100 to 500 | 30 to 50 | < 30 | < 30 | > 50 | < 30
15 | CC(C)(NCc1cc(-c2ccc3c(c2)CN(C2CCC(=O)NC2=O)C3=O)c2nccn2c1)c1ccccc1 (stereo not drawn) [Example 46, 3-(1-oxo-5-(6-(((2-phenylpropan-2-yl)amino)methyl)imidazo[1,2-a]pyridin-8-yl)isoindolin-2-yl) piperidine-2,6-dione] | 100 to 500 | < 30 | < 30 | 30 to 50 | > 50 | > 50
16 | O=C1CCC(N2Cc3cc(-c4cc(CN5CCC(c6ccccc6)CC5)cn5ccnc45)ccc3C2=O)C(=O)N1 (stereo not drawn) [Example 47, 3-(1-oxo-5-(6-((4-phenylpiperidin-1-yl)methyl)imidazo[1,2-a]pyridin-8-yl)isoindolin-2-yl) piperidine-2,6-dione] | < 100 | 30 to 50 | 30 to 50 | < 30 | < 30 | < 30
17 | O=C1CCC(N2Cc3cc(-c4cc(CN5CC(c6ccccc6)C5)cn5ccnc45)ccc3C2=O)C(=O)N1 (stereo not drawn) [Example 48, 3-(1-oxo-5-(6-((3-phenylazetidin-1-yl)methyl)imidazo[1,2-a]pyridin-8-yl)isoindolin-2-yl) piperidine-2,6-dione] | < 100 | < 30 | < 30 | < 30 | < 30 | < 30
18 | O=C1CCC(N2Cc3cc(-c4cc(CN5CCCC5c5ccccc5)cn5ccnc45)ccc3C2=O)C(=O)N1 (stereo not drawn) [Example 49, 3-(1-oxo-5-(6-((2-phenylpyrrolidin-1-yl)methyl)imidazo[1,2-a]pyridin-8-yl)isoindolin-2-yl) piperidine-2,6-dione] | 100 to 500 | < 30 | < 30 | < 30 | < 30 | < 30
